# Experimental data reported in ChEMBL document CHEMBL5257059, “Pyridine-Based 1,2,4-Triazolo-Tethered Indole Conjugates Potentially Affecting TNKS and PI3K in Colorectal Cancer” (ACS Med Chem Lett, 2023).
# Assays:
# Type in all cases: functional, cell-based
# DLD-1 = test: Antiproliferative activity against human DLD-1 cells assessed as inhibition of cell growth incubated for 24 hrs by MTT assay; details: DLD-1, 24 h
# A 172 = test: Antiproliferative activity against human A-172 cells assessed as inhibition of cell growth incubated for 24 hrs by MTT assay; details: A 172, 24 h
# HT-29 = test: Antiproliferative activity against human HT-29 cells assessed as inhibition of cell growth incubated for 24 hrs by MTT assay; details: HT-29, 24 h
# Caco-2 = test: Antiproliferative activity against human Caco-2 cells assessed as inhibition of cell growth incubated for 24 hrs by MTT assay; details: Caco-2, 24 h
# [1] = Antiproliferative activity against human Tera-1 cells assessed as inhibition of cell growth incubated for 24 hrs by MTT assay; details: Tera-1, 24 h
# A549 = test: Antiproliferative activity against human A549 cells assessed as inhibition of cell growth incubated for 24 hrs by MTT assay; details: A549, 24 h
SMILES,IC50 (DLD-1) [µM],IC50 (A 172) [µM],IC50 (HT-29) [µM],IC50 (Caco-2) [µM],IC50 [1] [µM],IC50 (A549) [µM]
Clc1ccc(-n2c(SCCc3c[nH]c4ccccc34)nnc2-c2ccncc2)cc1,21.8,23.3,> 30,25,> 30,18.7
Clc1cccc(-n2c(SCCc3c[nH]c4ccccc34)nnc2-c2ccncc2)c1,11,> 30,7.3,13.5,> 30,> 30
Brc1cccc(-n2c(SCCc3c[nH]c4ccccc34)nnc2-c2ccncc2)c1,15.3,14.7,12.2,10.5,24.6,14.5
CCCCn1c(SCCc2c[nH]c3ccccc23)nnc1-c1ccncc1,> 30,> 30,> 30,> 30,> 30,> 30
Cc1cccc(C)c1-n1c(SCCc2c[nH]c3ccccc23)nnc1-c1ccncc1,> 30,> 30,> 30,> 30,> 30,> 30
Brc1ccccc1-n1c(SCCc2c[nH]c3ccccc23)nnc1-c1ccncc1,> 30,> 30,> 30,> 30,> 30,4
Fc1ccc(-n2c(SCCc3c[nH]c4ccccc34)nnc2-c2ccncc2)cc1,10.6,> 30,5.8,10.3,> 30,8.09
c1ccc(Cn2c(SCCc3c[nH]c4ccccc34)nnc2-c2ccncc2)cc1,25.8,8.1,> 30,> 30,10.7,13.9
O=[N+]([O-])c1ccc(-n2c(SCCc3c[nH]c4ccccc34)nnc2-c2ccncc2)cc1,> 30,16.9,> 30,> 30,> 30,> 30
c1ccc(-n2c(SCCc3c[nH]c4ccccc34)nnc2-c2ccncc2)cc1,19,26.8,> 30,> 30,> 30,> 30
Cc1ccccc1-n1c(SCCc2c[nH]c3ccccc23)nnc1-c1ccncc1,> 30,> 30,> 30,> 30,> 30,> 30
CCCn1c(SCCc2c[nH]c3ccccc23)nnc1-c1ccncc1,> 30,> 30,> 30,> 30,> 30,> 30
O=c1[nH]cc(F)c(=O)[nH]1 [FLUOROURACIL],,,5.31,,,
Cc1ccc(-n2c(SCCc3c[nH]c4ccccc34)nnc2-c2ccncc2)cc1,16.5,20.3,> 30,17.8,> 30,13.5
C=CCn1c(SCCc2c[nH]c3ccccc23)nnc1-c1ccncc1,> 30,> 30,> 30,> 30,> 30,> 30
